Source: patent US7273885B2, “Inhibitors of serine proteases, particularly HCV NS3-NS4A protease” (Vertex Pharmaceuticals Incorporated, priority 2002, dated 2007)
Read-outs that look alike come from different tables or passages of the source. *1 amine or outer side, *2 acyl side, *3 side chain or, on linkers, in order; H or OH if unused. Where a SMILES comes first, the peptide text is derived from it. [ ]: non-standard residue; d: D form. The star is where a group is joined. Oic = O=C(O)[C@@H]1C[C@@H]2CCCC[C@@H]2N1; NH(1S-phenylethyl) = C[C@H](N*)c1ccccc1; X1 = CCCC(N[*:1])C(=O)C(=O)[*:2]; Chg = N[C@H](C(=O)O)C1CCCCC1; Tle = CC(C)(C)[C@H](N)C(=O)O; Dap = NC[C@H](N)C(=O)O; Moc = COC(=O)*

Tests used:
[1] = target: HCV NS3-NS4A protease (tNS3 with KK4A) (Hepatitis C virus genotype 1a, UniProt P27958); assay: HCV Ki assay (HPLC microbore separation of 5AB substrate and products); type: biochemical
Chain of HCV NS3-NS4A protease (tNS3 with KK4A) (P27958 1027-1208): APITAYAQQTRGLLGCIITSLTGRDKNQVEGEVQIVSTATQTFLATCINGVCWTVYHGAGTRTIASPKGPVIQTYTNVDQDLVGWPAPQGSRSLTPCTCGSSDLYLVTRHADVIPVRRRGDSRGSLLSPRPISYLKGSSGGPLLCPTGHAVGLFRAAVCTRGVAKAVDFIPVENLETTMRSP
Method: HPLC Microbore Method for Separation of 5AB Substrate and Products
• Substrate: • NH2-Glu-Asp-Val-Val-(alpha)Abu-Cys-Ser-Met-Ser-Tyr-COOH
A stock solution of 20 mM 5AB (or concentration of your choice) was made in DMSO w/ 0.2M DTT. This was stored in aliquots at −20 C.
Buffer: 50 mM HEPES, pH 7.8; 20% glycerol; 100 mM NaCl
Total assay volume was 100 μL
The buffer, KK4A, DTT, and tNS3 were combined; distributed 78 μL each into wells of 96 well plate. This was incubated at 30 C for ˜5–10 min.
2.5 μL of appropriate concentration of test compound was dissolved in DMSO (DMSO only for control) and added to each well. This was incubated at room temperature for 15 min.
Initiated reaction by addition of 20 μL of 250 μM 5AB substrate (25 μM concentration is equivalent or slightly lower than the Km for 5AB).
Incubated for 20 min at 30 C.
Terminated reaction by addition of 25 μL of 10% TFA
Transferred 120 μL aliquots to HPLC vials
Separated SMSY product from substrate and KK4A by the following method:
Microbore Separation Method:
Instrumentation: Agilent 1100
• Degasser G1322A • Binary pump G1312A • Autosampler G1313A • Column thermostated chamber G1316A • Diode array detector G1315A Column:
Phenomenex Jupiter; 5 micron C18; 300 angstroms; 150×2 mm; P/O 00F-4053-B0 • Column thermostat: 40 C • Injection volume: 100 μL • Solvent A=HPLC grade water+0.1% TFA • Solvent B=HPLC grade acetonitrile+0.1% TFA
• Stop time: 17 min • Post-run time: 10 min.

[2] = system: Cells containing hepatitis C virus (HCV) replicon; assay: HCV replicon cell assay (Taqman RT-PCR of HCV RNA); type: cell-based
Method: HCV Replicon Cell Assay Protocol
Cells containing hepatitis C virus (HCV) replicon were maintained in DMEM containing 10% fetal bovine serum (FBS), 0.25 mg per ml of G418, with appropriate supplements (media A).
On day 1, replicon cell monolayer was treated with a trypsin:EDTA mixture, removed, and then media A was diluted into a final concentration of 100,000 cells per ml wit. 10,000 cells in 100 ul were plated into each well of a 96-well tissue culture plate, and cultured overnight in a tissue culture incubator at 37° C.
On day 2, compounds (in 100% DMSO) were serially diluted into DMEM containing 2% FBS, 0.5% DMSO, with appropriate supplements (media B). The final concentration of DMSO was maintained at 0.5% throughout the dilution series.
Media on the replicon cell monolayer was removed, and then media B containing various concentrations of compounds was added. Media B without any compound was added to other wells as no compound controls.
Cells were incubated with compound or 0.5% DMSO in media B for 48 hours in a tissue culture incubator at 37° C. At the end of the 48-hour incubation, the media was removed, and the replicon cell monolayer was washed once with PBS and stored at −80° C. prior to RNA extraction.
Culture plates with treated replicon cell monolayers were thawed, and a fixed amount of another RNA virus, such as Bovine Viral Diarrhea Virus (BVDV) was added to cells in each well. RNA extraction reagents (such as reagents from RNeasy kits) were added to the cells immediately to avoid degradation of RNA. Total RNA was extracted according the instruction of manufacturer with modification to improve extraction efficiency and consistency. Finally, total cellular RNA, including HCV replicon RNA, was eluted and stored at −80° C. until further processing.
A Taqman real-time RT-PCR quantification assay was set up with two sets of specific primers and probe. One was for HCV and the other was for BVDV. Total RNA extractants from treated HCV replicon cells was added to the PCR reactions for quantification of both HCV and BVDV RNA in the same PCR well. Experimental failure was flagged and rejected based on the level of BVDV RNA in each well. The level of HCV RNA in each well was calculated according to a standard curve run in the same PCR plate. The percentage of inhibition or decrease of HCV RNA level due to compound treatment was calculated using the DMSO or no compound control as 0% of inhibition. The IC50 (concentration at which 50% inhibition of HCV RNA level is observed) was calculated from the titration curve of any given compound.

[3] = 50% inhibition of HCV RNA level, 48-hour incubation, HCV replicon cells, read-out: IC50

| SMILES | Ki [1] [nM] | IC50 [2, 3] [nM] | IC50 ([2]; 48 h) [nM] |
| --- | --- | --- | --- |
| CCC[C@H](NC(=O)[C@@H]1C[C@@H]2CCCC[C@@H]2N1C(=O)[C@@H](NC(=O)[C@@H](NC(=O)c1cnccn1)C1CCCCC1)C(C)(C)C)C(=O)C(=O)NC1CC1 [Compound 10a] | < 500 | 500 to 1000 | – |
| CCC[C@H](NC(=O)[C@@H]1C[C@@H]2CCCC[C@@H]2N1C(=O)[C@@H](NC(=O)[C@@H](NC(=O)c1cc2cc(F)ccc2[nH]1)C1CCCCC1)C(C)(C)C)C(=O)C(=O)NC1CC1 [Compound 18a] | < 500 | < 500 | – |
| CCCC(NC(=O)[C@@H]1C[C@@H]2CCCC[C@@H]2N1C(=O)[C@@H](NC(=O)[C@@H](NC(=O)c1cnccn1)C1CCCCC1)C(C)(C)C)C(=O)C(=O)NC1CC1 (stereo partly shown) [Compound 4a] | < 500 | 500 to 1000 | – |
| CCC[C@H](NC(=O)[C@@H]1C[C@@H]2CCCC[C@@H]2N1C(=O)[C@@H](NC(=O)[C@@H](NC(=O)[C@@H]1Cc2ccccc2N1)C1CCCCC1)C(C)(C)C)C(=O)C(=O)NC1CC1 [Compound 46a] | < 500 | 1000 to 5000 | – |
| CCC[C@H](NC(=O)[C@@H]1C[C@@H]2CCCC[C@@H]2N1C(=O)[C@@H](NC(=O)[C@@H](NC(=O)c1cc(C)c(C(C)=O)[nH]1)C1CCCCC1)C(C)(C)C)C(=O)C(=O)NC1CC1 [Compound 37a] | < 500 | < 500 | – |
| C=CCNC(=O)C(=O)[C@H](CCC)NC(=O)[C@@H]1C[C@@H]2CCCC[C@@H]2N1C(=O)[C@@H](NC(=O)[C@@H](NC(=O)c1cnccn1)C1CCCCC1)C(C)(C)C [Compound 51a] | < 500 | 500 to 1000 | – |
| CCC[C@H](NC(=O)[C@@H]1C[C@@H]2CCCC[C@@H]2N1C(=O)[C@@H](NC(=O)[C@@H](NC(=O)c1cnc2ccccc2n1)C1CCCCC1)C(C)(C)C)C(=O)C(=O)NC1CC1 [Compound 35a] | < 500 | 1000 to 5000 | – |
| CCC[C@H](NC(=O)[C@@H]1C[C@@H]2CCCC[C@@H]2N1C(=O)[C@@H](NC(=O)[C@@H](NC(=O)c1cc(Cl)c(Cl)[nH]1)C1CCCCC1)C(C)(C)C)C(=O)C(=O)NC1CC1 [Compound 43a] | < 500 | < 500 | – |
| CC(=O)c1c(C(=O)N[C@H](C(=O)N[C@H](C(=O)N2[C@H](C(=O)N[C@@H](CC(F)F)C(=O)C(=O)NC3CC3)C[C@@H]3CCCC[C@@H]32)C(C)(C)C)C2CCCCC2)[nH]c(C)c1C [Compound 61a] | < 500 | < 500 | – |
| CCC[C@H](NC(=O)[C@@H]1C[C@@H]2CCCC[C@@H]2N1C(=O)[C@@H](NC(=O)[C@@H](NC(=O)c1ccccn1)C1CCCCC1)C(C)(C)C)C(=O)C(=O)NC1CC1 [Compound 30a] | 500 to 1000 | 1000 to 5000 | – |
| CCC[C@H](NC(=O)[C@@H]1C[C@@H]2CCCC[C@@H]2N1C(=O)[C@@H](NC(=O)[C@@H](NC(=O)c1[nH]c(C)c(C)c1C(C)=O)C1CCCCC1)C(C)(C)C)C(=O)C(=O)NC1CC1 [Compound 25a] | < 500 | < 500 | – |
| CCC[C@H](NC(=O)[C@@H]1C[C@@H]2CCCC[C@@H]2N1C(=O)[C@@H](NC(=O)[C@@H](NC(=O)[C@](C)(O)c1ccccc1)C1CCCCC1)C(C)(C)C)C(=O)C(=O)NC1CC1 [Compound 20a] | < 500 | 500 to 1000 | – |
| CCC[C@H](NC(=O)[C@@H]1C[C@@H]2CCCC[C@@H]2N1C(=O)[C@@H](NC(=O)[C@@H](NC(=O)c1cc([N+](=O)[O-])c[nH]1)C1CCCCC1)C(C)(C)C)C(=O)C(=O)NC1CC1 [Compound 12a] | < 500 | < 500 | – |
| CCC[C@H](NC(=O)[C@@H]1C[C@@H]2CCCC[C@@H]2N1C(=O)[C@@H](NC(=O)[C@@H](NC(=O)c1[nH]c2ccccc2c1C(C)=O)C1CCCCC1)C(C)(C)C)C(=O)C(=O)NC1CC1 [Compound 39a, 3-Acetyl-1H-indole-2-carboxylic acid (cyclohexyl-{1-[2-(1-cyclopropylaminooxalyl-butylcarbamoyl)-octahydro-indole-1-carbonyl]-2,2-dimethyl-propylcarbamoyl}-methyl)-amide] | < 500 | < 500 | – |
| CCC[C@@H](NC(=O)[C@@H]1C[C@@H]2CCCC[C@@H]2N1C(=O)[C@@H](NC(=O)[C@@H](NC(=O)c1cnccn1)C1CCCCC1)C(C)(C)C)C(=O)C(=O)NC1CC1 [Compound 60a] | 1000 to 5000 | 1000 to 5000 | – |
| CCC[C@H](NC(=O)[C@@H]1C[C@@H]2CCCC[C@@H]2N1C(=O)[C@@H](NC(=O)[C@@H](NC(=O)C(=O)Nc1ccccc1)C1CCCCC1)C(C)(C)C)C(=O)C(=O)NC1CC1 [Compound 21a] | < 500 | – | < 500 |
| CCCC(NC(=O)[C@@H]1C[C@@H]2CCCC[C@@H]2N1C(=O)[C@@H](NC(=O)[C@@H](NC(=O)[C@H](CNC(=O)OC)NC(=O)OC)C1CCCCC1)C(C)(C)C)C(=O)C(=O)N[C@@H](C)c1ccccc1 (stereo partly drawn) [Compound 9a] (Moc-[Dap](Moc)[Chg][Tle][Oic][X1]-{NH(1S-phenylethyl)}) | < 500 | < 500 | – |
| CCC[C@H](NC(=O)[C@@H]1C[C@@H]2CCCC[C@@H]2N1C(=O)[C@@H](NC(=O)[C@@H](NC(=O)c1[nH]c(C)c(C(=O)c2ccccc2)c1C#N)C1CCCCC1)C(C)(C)C)C(=O)C(=O)NC1CC1 [Compound 34a] | < 500 | 1000 to 5000 | – |
| CCC[C@H](NC(=O)[C@@H]1C[C@@H]2CCCC[C@@H]2N1C(=O)[C@@H](NC(=O)[C@@H](NC(=O)c1[nH]ncc1[N+](=O)[O-])C1CCCCC1)C(C)(C)C)C(=O)C(=O)NC1CC1 [Compound 13a] | < 500 | 500 to 1000 | – |
| CCC[C@H](NC(=O)[C@@H]1C[C@@H]2CCCC[C@@H]2N1C(=O)[C@@H](NC(=O)[C@@H](NC(=O)c1cccnc1)C1CCCCC1)C(C)(C)C)C(=O)C(=O)NC1CC1 [Compound 31a] | < 500 | 1000 to 5000 | – |
| CCC[C@H](NC(=O)[C@@H]1C[C@@H]2CCCC[C@@H]2N1C(=O)[C@@H](NC(=O)[C@@H](NC(=O)c1ccoc1)C1CCCCC1)C(C)(C)C)C(=O)C(=O)NC1CC1 [Compound 26a] | < 500 | 1000 to 5000 | – |
| CCC[C@H](NC(=O)[C@@H]1C[C@@H]2CCCC[C@@H]2N1C(=O)[C@@H](NC(=O)[C@@H](NC(=O)c1cc(C(=O)CC)c[nH]1)C1CCCCC1)C(C)(C)C)C(=O)C(=O)NC1CC1 [Compound 44a] | < 500 | < 500 | – |
| CCCC(NC(=O)[C@@H]1C[C@@H]2CCCC[C@@H]2N1C(=O)[C@@H](NC(=O)[C@@H](NC(=O)c1[nH]c(C)c(C)c1C(C)=O)C1CCCCC1)C(C)(C)C)C(=O)C(=O)NC1CC1 (stereo partly shown) [Compound 33a] | < 500 | < 500 | – |
| CCC[C@H](NC(=O)[C@@H]1C[C@@H]2CCCC[C@@H]2N1C(=O)[C@@H](NC(=O)[C@@H](NC(=O)c1cc(CC)c(C(C)=O)[nH]1)C1CCCCC1)C(C)(C)C)C(=O)C(=O)NC1CC1 [Compound 42a] | < 500 | < 500 | – |
| CCC[C@H](NC(=O)[C@@H]1C[C@@H]2CCCC[C@@H]2N1C(=O)[C@@H](NC(=O)[C@@H](NC(=O)[C@@](C)(O)c1ccccc1)C1CCCCC1)C(C)(C)C)C(=O)C(=O)NC1CC1 [Compound 19a] | < 500 | 500 to 1000 | – |
| CCC[C@H](NC(=O)[C@@H]1C[C@@H]2CCCC[C@@H]2N1C(=O)[C@@H](NC(=O)[C@@H](NC(=O)C1(O)CCCC1)C1CCCCC1)C(C)(C)C)C(=O)C(=O)NC1CC1 [Compound 22a] | 500 to 1000 | 1000 to 5000 | – |
